Values quoted from earlier work, collected in patent publication US12440455B2, “Methods of administering cannabinoids” (IMPACT NATURALS, INC., priority 2022, dated 2025).

Columns and labels:
SARS-CoV-2 = conditions: Nguyen et al., Sci. Adv. 8, eabi6110 (2022)
CB2 = CB2 (Homo sapiens, UniProt P34972); conditions: WHO assessment
Chain of CB2 (P34972 whole entry, species assumed): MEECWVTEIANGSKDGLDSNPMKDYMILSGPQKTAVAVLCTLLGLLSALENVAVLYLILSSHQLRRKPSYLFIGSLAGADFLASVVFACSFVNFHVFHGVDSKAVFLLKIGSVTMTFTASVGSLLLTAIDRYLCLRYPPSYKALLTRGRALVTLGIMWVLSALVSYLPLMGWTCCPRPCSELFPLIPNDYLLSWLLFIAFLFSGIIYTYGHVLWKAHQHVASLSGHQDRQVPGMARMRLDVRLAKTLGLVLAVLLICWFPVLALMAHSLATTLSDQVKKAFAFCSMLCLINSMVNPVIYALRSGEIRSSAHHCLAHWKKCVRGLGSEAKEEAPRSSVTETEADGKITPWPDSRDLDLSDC

C=C(C)[C@@H]1CCC(C)=C[C@H]1c1c(O)cc(CCCCC)cc1O [Cannabidiol]
aqueous solubility: approximately 0.013 milligrams per milliliter
inhibition of SARS-CoV-2 replication (SARS-CoV-2): inhibit SARS-CoV-2 replication
affinity to CB2 (CB2): low affinity
